According to ChEMBL document CHEMBL5046262, “Fragment-Based Discovery of MRTX1719, a Synthetic Lethal Inhibitor of the PRMT5•MTA Complex for the Treatment of MTAP-Deleted Cancers” (J Med Chem, 2022):
Values joined by “and” are separate entries in the source; they are usually repeats but may differ in a detail not shown here. Equal values may be shown once.

Experiments:
[1] = molecular target: T1, Protein arginine N-methyltransferase 5 (Homo sapiens, UniProt O14744)
[2] = Efflux ratio of apparent permeability across basolateral to apical side over apical to basolateral side in dog MDCKII-MDR1 cells at 2 uM incubated for 2.5 hrs by LC-MS/MS analysis; type: ADME, cell-based, Canis lupus familiaris, MDCK-MDR1; conditions: for efflux ratio at 2.5 h, 2 µM: MDCK-MDR1
[3] = molecular target: T1, Protein arginine N-methyltransferase 5; experiment: Binding affinity to MTA-bound human PRMT5 assessed as dissociation constant by SPR assay
[4] = Apparent permeability across apical to basolateral side in dog MDCKII-MDR1 cells at 2 uM incubated for 2.5 hrs by LC-MS/MS analysis; type: ADME, cell-based, Canis lupus familiaris, MDCK-MDR1; conditions: for Papp A→B at 2.5 h, 2 µM: MDCK-MDR1; for Papp: mdck-mdr1, 2.5 h, 2 µM, 2.5 h
[5] = molecular target: T1, Protein arginine N-methyltransferase 5; remark: listed apart in the source
[6] = Lipophilicity, logD of the compound at pH 7.4; type: physicochemical; conditions: buffer
[7] = molecular target: T1, Protein arginine N-methyltransferase 5; experiment: Inhibition of PRMT5 methyltransferase activity in human HCT-116 cells expressing wild type MTAP assessed as inhibition of PRMT5- mediated SDMA modification level incubated for 96 hrs by Western blot analysis; type: cell-based
[8] = Selectivity ratio of IC50 for antiproliferative activity against human HCT-116 cells expressing wild type MTAP to IC50 for antiproliferative activity against MTAP knockout human HCT-116 cells; type: functional
HCT-116 [9] = experiment: Antiproliferative activity against human HCT-116 cells expressing wild type MTAP assessed as reduction in cell viability incubated for 5 days followed by replacement with fresh medium containing compound and measured after 5 days by CTG assay; type: functional, cell-based
HCT-116 [10] = experiment: Antiproliferative activity against MTAP knockout human HCT-116 cells assessed as reduction in cell viability incubated for 5 days followed by replacement with fresh medium containing compound and measured after 5 days by CTG assay; type: functional, cell-based
[11] = Intrinsic clearance in human hepatocytes; type: ADME, cell-based, Hepatocyte; conditions: read-out: CLH
[12] = molecular target: T1, Protein arginine N-methyltransferase 5; experiment: Inhibition of PRMT5 methyltransferase activity in MTAP knockout human HCT-116 cells assessed as inhibition of PRMT5- mediated SDMA modification level incubated for 96 hrs by Western blot analysis; type: cell-based
Homo sapiens = organism: Homo sapiens; experiment: Selectivity ratio of IC50 for inhibition of PRMT5 methyltransferase activity in human HCT-116 cells expressing wild type MTAP to IC50 for nhibition of PRMT5 methyltransferase activity in MTAP knockout human HCT-116 cells; type: cell-based
[13] = Intrinsic clearance in mouse hepatocytes; type: ADME, cell-based, Hepatocyte; conditions: read-out: CLH
[14] = Volume of distribution at steady state in cynomolgus monkey at 2 mg/kg, iv measured upto 24 hrs by LC-MS/MS analysis; type: ADME, organism-based, Macaca fascicularis; conditions: in vivo, read-out: Vdss
[15] = Oral bioavailability in cynomolgus monkey at 10 mg/kg administered via gavage measured upto 24 hrs by LC-MS/MS analysis; type: ADME, organism-based, Macaca fascicularis; conditions: in vivo
Lu-99 cell line [16] = experiment: Antitumor activity against MTAP/CDKN2A deleted human Lu-99 cells xenografted in Hsd athymic nude mouse assessed as tumor growth inhibition at 100 mg/kg, po qd administered via oral gavage for 21 days by caliper method relative to control; type: functional; conditions: Lu-99, po, 504 h, time 21 day, read-out: TGI
[17] = Volume of distribution at steady state in beagle dog at 2 mg/kg, iv measured upto 24 hrs by LC-MS/MS analysis; type: ADME, organism-based, Canis lupus familiaris; conditions: in vivo, read-out: Vdss
[18] = Total clearance in beagle dog at 2 mg/kg, iv measured upto 24 hrs by LC-MS/MS analysis; type: ADME, organism-based, Canis lupus familiaris; conditions: in vivo
[19] = Oral bioavailability in beagle dog at 10 mg/kg administered via gavage measured upto 24 hrs by LC-MS/MS analysis; type: ADME, organism-based, Canis lupus familiaris; conditions: in vivo
[20] = Half life in CD-1 mouse at 3 mg/kg, iv measured upto 24 hrs by LC-MS/MS analysis; type: ADME, organism-based; conditions: in vivo
[21] = Half life in cynomolgus monkey at 2 mg/kg, iv measured upto 24 hrs by LC-MS/MS analysis; type: ADME, organism-based, Macaca fascicularis; conditions: in vivo
[22] = Total clearance in cynomolgus monkey at 2 mg/kg, iv measured upto 24 hrs by LC-MS/MS analysis; type: ADME, organism-based, Macaca fascicularis; conditions: in vivo
[23] = Total clearance in CD-1 mouse at 3 mg/kg, iv measured upto 24 hrs by LC-MS/MS analysis; type: ADME, organism-based; conditions: in vivo
[24] = Cmax in CD-1 mouse at 30 mg/kg, po administered via gavage measured upto 24 hrs by LC-MS/MS analysis; type: ADME, organism-based; set-up: route oral, dose 30 mg/kg, time <=24; conditions: in vivo
[25] = Toxicity in Hsd athymic nude mouse xenografted with MTAP/CDKN2A deleted human Lu-99 cells assessed as effect on body weight at 12.5 to 100 mg/kg, po qd administered via oral gavage for 21 days; type: organism-based, Lu-99 cell line; conditions: in vivo, 504 h, dose 12.5-100 mg/kg, time 21 day
[26] = Half life in beagle dog at 2 mg/kg, iv measured upto 24 hrs by LC-MS/MS analysis; type: ADME, organism-based, Canis lupus familiaris; conditions: in vivo
[27] = Oral bioavailability in CD-1 mouse at 30 mg/kg administered via gavage measured upto 24 hrs by LC-MS/MS analysis; type: ADME, organism-based; conditions: in vivo
[28] = Cmax in beagle dog at 10 mg/kg, po administered via gavage measured upto 24 hrs by LC-MS/MS analysis; type: ADME, organism-based, Canis lupus familiaris; set-up: route oral, dose 10 mg/kg, time <=24; conditions: in vivo
Lu-99 cell line [29] = experiment: Antitumor activity against MTAP/CDKN2A deleted human Lu-99 cells xenografted in Hsd athymic nude mouse assessed as tumor growth inhibition at 50 mg/kg, po qd administered via oral gavage for 21 days by caliper method relative to control; type: functional; conditions: Lu-99, po, 504 h, time 21 day, read-out: TGI
[30] = AUCinfinity in CD-1 mouse at 30 mg/kg, po administered via gavage measured upto 24 hrs by LC-MS/MS analysis; type: ADME, organism-based; set-up: route oral, dose 30 mg/kg, time <=24; conditions: in vivo
[31] = AUCinfinity in beagle dog at 10 mg/kg, po administered via gavage measured upto 24 hrs by LC-MS/MS analysis; type: ADME, organism-based, Canis lupus familiaris; set-up: route oral, dose 10 mg/kg, time <=24; conditions: in vivo
Lu-99 cell line [32] = experiment: Antitumor activity against MTAP/CDKN2A deleted human Lu-99 cells xenografted in Hsd athymic nude mouse assessed as reduction in PRMT5 mediated SDMA level in tumor at 12.5 to 100 mg/kg, po qd administered via oral gavage for 21 days relative to control; type: functional; set-up: scale not given: the % may be the effect or the level left; conditions: dose 12.5-100 mg/kg, time 21 day
[33] = Inhibition of PRMT5 C449S mutant/MEP50 (unknown origin) using Histone H2A as substrate; set-up: species or system Homo sapiens
[34] = Volume of distribution at steady state in CD-1 mouse at 3 mg/kg, iv measured upto 24 hrs by LC-MS/MS analysis; type: ADME, organism-based; conditions: in vivo, read-out: Vdss
PRMT5/MEP50 complex = PRMT5/MEP50 complex (Homo sapiens, UniProt O14744); experiment: Inhibition of streptavidin sensor chip immobilized biotinylated human PRMT5/MEP50 assessed as dissociation constant by SPR analysis; type: protein-complex assay
PRMT5/MEP50 complex, sequence (O14744 whole entry): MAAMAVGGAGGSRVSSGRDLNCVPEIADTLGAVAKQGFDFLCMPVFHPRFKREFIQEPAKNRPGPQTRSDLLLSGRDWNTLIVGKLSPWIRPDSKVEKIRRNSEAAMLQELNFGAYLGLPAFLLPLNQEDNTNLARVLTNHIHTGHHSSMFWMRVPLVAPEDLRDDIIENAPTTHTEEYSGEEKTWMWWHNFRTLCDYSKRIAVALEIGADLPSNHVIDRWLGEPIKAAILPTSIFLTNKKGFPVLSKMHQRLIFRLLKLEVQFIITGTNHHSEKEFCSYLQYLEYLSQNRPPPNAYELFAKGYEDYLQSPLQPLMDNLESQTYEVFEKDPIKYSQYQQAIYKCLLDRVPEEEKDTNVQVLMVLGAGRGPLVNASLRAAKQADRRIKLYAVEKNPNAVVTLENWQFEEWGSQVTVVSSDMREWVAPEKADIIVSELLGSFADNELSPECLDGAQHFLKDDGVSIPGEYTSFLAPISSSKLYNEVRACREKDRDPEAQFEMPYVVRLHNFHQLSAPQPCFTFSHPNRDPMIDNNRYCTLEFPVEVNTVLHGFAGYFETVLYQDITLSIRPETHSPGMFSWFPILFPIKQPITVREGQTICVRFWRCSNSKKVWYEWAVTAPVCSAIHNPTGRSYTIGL
PRMT5/MEP50 complex, sequence (Q9BQA1 whole entry, further chain): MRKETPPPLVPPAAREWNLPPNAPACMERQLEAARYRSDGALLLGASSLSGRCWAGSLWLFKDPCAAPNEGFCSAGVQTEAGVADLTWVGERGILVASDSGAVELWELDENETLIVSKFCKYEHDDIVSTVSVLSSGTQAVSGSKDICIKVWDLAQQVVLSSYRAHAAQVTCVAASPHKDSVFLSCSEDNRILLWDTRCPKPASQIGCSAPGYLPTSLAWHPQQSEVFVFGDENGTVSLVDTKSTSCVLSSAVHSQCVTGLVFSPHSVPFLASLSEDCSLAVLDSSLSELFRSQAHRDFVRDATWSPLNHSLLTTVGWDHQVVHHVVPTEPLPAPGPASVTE

T1 sequence (O14744 whole entry): as the sequence (O14744 whole entry) above

With NCc1nnc(O)c2ccc(-c3ccccc3)cc12 the IC50 [1] was 4300 nM, the efflux ratio at 2.5 h, 2 µM [2] was 0.8 and the Kd [3] was 1620 nM. The Papp A→B at 2.5 h, 2 µM [4] was 16 ×10⁻⁶ cm/s and the IC50 [5] was 14500 nM.
Compound Cn1cc(-c2ccc3c(=O)[nH]nc(CN)c3c2)cn1 has a logD [6] of -0.5 and a Papp A→B at 2.5 h, 2 µM [4] of 2.3 ×10⁻⁶ cm/s.
Work on Cn1ncc(-c2ccc3c(=O)[nH]nc(CN)c3c2)c1-c1cccc(OC2CC2)c1C#N yielded an IC50 [1] of 1000 nM, an efflux ratio at 2.5 h, 2 µM [2] of 104 and an IC50 [7] of 6550 nM. For the same compound, the “Ratio IC50” value [8] was 53, the IC50 (HCT-116 [9]) was 6820 nM and the IC50 (HCT-116 [10]) was 129 nM. The CLint scaled [11] was < 18 mL/min/kg, the IC50 [12] was 34 nM and the Papp A→B at 2.5 h, 2 µM [4] was 0.3 ×10⁻⁶ cm/s. It also gave a Ratio IC50 (Homo sapiens) of 193 and a CLint scaled [13] of 237 mL/min/kg.
With Cn1ncc(-c2ccc3c(=O)[nH]nc(CN)c3c2)c1-c1c(F)c(Cl)cc(OC2CC2)c1C#N the Vd [14] was 2.3 L/kg, the bioavailability [15] was 41% and the inhibition in vivo at 100 mg/kg (Lu-99 cell line [16]) was 88%. For the same compound, the Vd [17] was 3.4 L/kg, the clearance [18] was 14 mL/min/kg and the bioavailability [19] was 59%. It also gave a half-life [20] of 1.5 h, a half-life [21] of 6.1 h and a clearance [22] of 15 mL/min/kg. The clearance [23] was 83 mL/min/kg, the Cmax [24] was 1160 ng/mL and the Activity [25] was “Non-Toxic”. The CLint scaled [11] was < 18 mL/min/kg, the half-life [26] was 4.8 h and the bioavailability [27] was 80%. The Cmax [28] was 1400 ng/mL, the inhibition in vivo at 50 mg/kg (Lu-99 cell line [29]) was 86% and the AUC(0-inf) [30] was 4850 ng·h/mL. For the same compound, the AUC(0-inf) [31] was 7470 ng·h/mL, the Papp A→B at 2.5 h, 2 µM [4] was < 0.2 ×10⁻⁶ cm/s and the Papp [4] was 0.3 ×10⁻⁶ cm/s. The Activity (Lu-99 cell line [32]) was 86%, the IC50 [33] was 717 nM and the Vd [34] was 6.3 L/kg.
Work on C[S@@+](CC[C@H](N)C(=O)[O-])C[C@H]1O[C@@H](n2cnc3c(N)ncnc32)[C@H](O)[C@@H]1O yielded a Kd (PRMT5/MEP50 complex) of 550 nM.
In the case of CSC[C@H]1O[C@@H](n2cnc3c(N)ncnc32)[C@H](O)[C@@H]1O [METHYLTHIOADENOSINE], the Kd (PRMT5/MEP50 complex) is reported as 661 nM.
For Cn1ncc(-c2ccc3c(=O)[nH]nc(CN)c3c2)c1-c1cc(Cl)cc(OC2CC2)c1C#N, the efflux ratio at 2.5 h, 2 µM [2] was 121, the IC50 [7] was 834 nM and the “Ratio IC50” value [8] was 24. For the same compound, the IC50 (HCT-116 [9]) was 990 nM, the IC50 (HCT-116 [10]) was 41 nM and the CLint scaled [11] was < 18 mL/min/kg. The IC50 [12] was 8 nM, the Papp A→B at 2.5 h, 2 µM [4] was 0.2 ×10⁻⁶ cm/s and the CLint scaled [13] was 336 mL/min/kg.
Cn1ncc(-c2ccc3c(=O)[nH]nc(CN)c3c2)c1-c1c(F)cc2ccccc2c1C#N showed a Vd [14] of 3.3 L/kg, a bioavailability [15] of 28% and a Vd [17] of 4.4 L/kg. It also gave a clearance [18] of 21 mL/min/kg, an efflux ratio at 2.5 h, 2 µM [2] of 85 and a Ratio ([2]; mdck-mdr1, 2.5 h, 2 µM, 2.5 h) of 136. For the same compound, the bioavailability [19] was 60%, the IC50 [7] was 569 nM and > 1000 nM and the half-life [20] was 1.5 h. The half-life [21] was 2.6 h, the clearance [22] was 24 mL/min/kg and the IC50 (HCT-116 [9]) was 1020 nM and 5930 nM. For the same compound, the clearance [23] was 78 mL/min/kg, the Cmax [24] was 590 ng/mL and the CLint scaled [11] was 18 mL/min/kg. It also gave a half-life [26] of 3.9 h, a bioavailability [27] of 34% and a Cmax [28] of 880 ng/mL. For the same compound, the AUC(0-inf) [30] was 2730 ng·h/mL, the AUC(0-inf) [31] was 4800 ng·h/mL and the Papp A→B at 2.5 h, 2 µM [4] was 0.4 ×10⁻⁶ cm/s. It also gave a Papp [4] of 0.3 ×10⁻⁶ cm/s, a CLint scaled [13] of 255 mL/min/kg and a Vd [34] of 5.3 L/kg.
